Test results as given in patent US20190337924A1, “SUBSTITUTED HYDANTOIN AND THIOHYDANTOIN DERIVATIVES AS ANDROGEN RECEPTOR ANTAGONISTS” (Janssen Pharmaceutica NV, priority 2016, published 2019).
Structures can show the parent of a compound that is named as a salt. Where two headings read alike, the source gives them in different places.

Legend:
[1] = molecular target: T1, F876L mutant Androgen Receptor (AR-F876L) (Homo sapiens, UniProt P10275, F877L); assay: AR reporter assay, LNCaP-AR-F876L ANT (antagonist mode); format: cell-based; settings: for Emax: read-out: LNCaP-AR-F876L ANT MAX % Inh
T1 construct: expressed in transfected cells; host or cells: LNCaP
T1 sequence (P10275 1-920 F877L): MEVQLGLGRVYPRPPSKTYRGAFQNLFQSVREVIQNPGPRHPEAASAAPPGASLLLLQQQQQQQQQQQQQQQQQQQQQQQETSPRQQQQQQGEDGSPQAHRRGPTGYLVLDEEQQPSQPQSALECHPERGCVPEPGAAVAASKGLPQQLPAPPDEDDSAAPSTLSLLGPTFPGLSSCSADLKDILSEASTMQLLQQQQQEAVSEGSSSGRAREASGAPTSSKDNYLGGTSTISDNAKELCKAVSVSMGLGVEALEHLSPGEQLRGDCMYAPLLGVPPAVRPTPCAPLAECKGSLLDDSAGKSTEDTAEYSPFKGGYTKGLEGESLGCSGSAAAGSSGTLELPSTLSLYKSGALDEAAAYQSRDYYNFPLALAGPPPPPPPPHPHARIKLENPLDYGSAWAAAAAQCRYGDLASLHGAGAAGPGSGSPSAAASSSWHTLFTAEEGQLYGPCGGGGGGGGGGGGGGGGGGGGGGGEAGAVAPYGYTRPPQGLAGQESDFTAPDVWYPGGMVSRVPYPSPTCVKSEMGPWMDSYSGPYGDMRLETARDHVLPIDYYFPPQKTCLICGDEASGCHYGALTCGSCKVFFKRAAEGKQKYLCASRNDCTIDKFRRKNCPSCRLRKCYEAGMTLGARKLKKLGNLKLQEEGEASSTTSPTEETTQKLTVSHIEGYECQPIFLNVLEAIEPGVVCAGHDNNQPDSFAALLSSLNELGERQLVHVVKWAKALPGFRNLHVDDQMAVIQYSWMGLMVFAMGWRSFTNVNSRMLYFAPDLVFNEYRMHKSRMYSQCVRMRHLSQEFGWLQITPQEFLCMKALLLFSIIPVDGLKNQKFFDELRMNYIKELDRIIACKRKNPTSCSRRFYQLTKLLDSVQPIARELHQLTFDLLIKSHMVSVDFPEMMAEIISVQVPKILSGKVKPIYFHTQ
From the text: (§1) LNCaP AR (cs) and LNCaP F876L luciferase cell lines were generated by transduction of each cell line (description of cell line generation Joseph J D, Lu N, Qian J, Sensintaffar J, Shao G, Brigham D, Moon M, Maneval E C, Chen I, Darimont B, Hager J H. A clinically relevant androgen receptor mutation confers resistance to second-generation antiandrogens enzalutamide and ARN-509. Cancer Discov 2013; 3:1020-1029) with an Androgen Response Element Firefly Luciferase lentiviral construct at an MOI (multiplicity of infection) of 50 following the manufacturer's instructions (Qiagen). A stable pooled-population cell line was generated using puromycin (Life Technologies) selection at 1:10,000 v/v. The protocol below was used for both cell lines and for testing of the compounds of Formula (I) of the present invention.
(§2) LNCaP cells were grown to about 80% confluence, media removed and cells rinsed in Hank's balanced salt solution prior to separation from the plate with 0.05% Trypsin EDTA. Cells were lifted and trypsin negated in complete CSS (charcoal stripped serum) culture media. CSS was maintained on cells for 24 h prior to assay, at which time 5,000 cells/[…] were seeded in Greiner 384 well White/White Tissue Culture Treated Plates and incubated for a further 1-2 hours at 37° C., 5% CO2, prior to addition of 10 μL of 4× Test Compounds (compounds described herein) or Assay Controls (all diluted in complete media containing 10% css). A further 10 μL of 4× R-1881 Agonist Challenge (antagonist assay) or Buffer (agonist assay) was then added (all diluted in complete media containing 10% css). Agonist challenge was at 400 pM for WT assay and 600 pM for F876L assay. Plates containing cells and compounds herein were incubated for a further 20-24 hours at 37° C., 5% CO2 before addition of 40 μL/well of Steady-Glo Luciferase Assay System Reagent (Promega#E2520). After 1 h, plates were read for luminescence on a BMG Pherastar.
Agonist challenge: R-1881 (Metribolone)—Agonist
Antagonist control (low control): 5-(5-(4-((1-Methylpiperidin-4-yl)oxy)phenyl)-8-oxo-6-thioxo-5,7-diazaspiro[3.4]octan-7-yl)-3-(trifluoromethyl)picolinonitrile (WO 2011/103202, EXAMPLE 19, Compound 129, CAS #1332390-06-3).
(1−(Sample RLU−Ave Low Control RLU[10 μM Antagonist Control])/(Ave High Control RLU [400 pM R-1881]−Ave Low Control RLU[10 μM Antagonist Control]))*100.
(§3) EC/IC50 calculations were achieved utilizing calculated RLU data and data fitting macros. Data were fit using least-squares methods to the following formula: […]
(§4) As used herein: • pIC50 is defined as −Log10(IC50 expressed in [Molar]). • pEC50 is defined as −Log10(EC50 expressed in [Molar]). • MAX % Inh is defined as the maximum % inhibition of R1881 control response observed for a compound over the tested concentration range. • MAX % Stim is defined as the maximum % stimulation (agonist response) observed for a compound over the tested concentration range. • LNCaP-AR-wt ANT refers to the reporter assay using LNCaP cells stably transfected with the Androgen Response Element Firefly Luciferase lentiviral construct and wild-type Androgen Receptor (AR-wt) in Antagonist mode. • LNCaP-AR-wt AG refers to the reporter assay using LNCaP cells stably transfected with the Androgen Response Element Firefly Luciferase lentiviral construct and wild-type Androgen Receptor (AR-wt) in Agonist mode. • LNCaP-AR-F876L ANT refers to the reporter assay using LNCaP cells stably transfected with the Androgen Response Element Firefly Luciferase lentiviral construct and F876L mutant Androgen Receptor (AR-F876L) in Antagonist mode. • LNCaP-AR-F876L AG refers to the reporter assay using LNCaP cells stably transfected with the Androgen Response Element Firefly Luciferase lentiviral construct and F876L mutant Androgen Receptor (AR-F876L) in Agonist mode.

[2] = molecular target: T1, F876L mutant Androgen Receptor (AR-F876L); assay: AR reporter assay, LNCaP-AR-F876L AG (agonist mode); format: cell-based; settings: for Emax: read-out: LNCaP-AR-F876L AG MAX % Stim
From the text: as §1, §2
((Sample RLU−Ave Low Control RLU[DMSO/Buffer])/(Ave High Control RLU [1 μM R-1881]—Ave Low Control RLU[DMSO/Buffer]))*100.
as §3, §4

| SMILES | IC50 [1] [nM] | Emax [1] [%] | EC50 [2] [nM] | Emax [2] [%] | IC50 ([1]; antagonist mode, 600 pM R-1881 challenge, luciferase reporter, -Log10(IC50 in Molar), read-out: LNCaP-AR-F876L ANT pIC50 (converted)) [nM] |
| --- | --- | --- | --- | --- | --- |
| CC1(C)C(=O)N(c2ccc(C#N)c(C(F)(F)F)c2)C(=S)N1c1ccc(OC2CCNCC2)cc1 [Compound 1, 4-(4,4-Dimethyl-5-oxo-3-(4-(piperidin-4-yloxy)phenyl)-2-thioxoimidazolidin-1-yl)-2-(trifluoromethyl)benzonitrile] | 41.7 | 102 | > 15100 | -0.1 |  |
| CN1CCC(Oc2ccc(N3C(=S)N(c4ccc(C#N)c(C(F)(F)F)c4)C(=O)C3(C)C)cc2)CC1 [Compound 2, 4-(4,4-Dimethyl-3-(4-((1-methylpiperidin-4-yl)oxy)phenyl)-5-oxo-2-thioxoimidazolidin-1-yl)-2-(trifluoromethyl)benzonitrile hydrochloride] | 69.2 | 101 | > 15100 | 0.1 |  |
| CC1(C)C(=O)N(c2ccc(C#N)c(C(F)(F)F)c2)C(=S)N1c1ccc(OC2CCNCC2)nc1 [Compound 3, 4-(4,4-Dimethyl-5-oxo-3-(6-(piperidin-4-yloxy)pyridin-3-yl)-2-thioxoimidazolidin-1-yl)-2-(trifluoromethyl)benzonitrile hydrochloride] | 40.7 | 102 | > 15100 | 0.3 |  |
| CN1CCC(Oc2ccc(N3C(=S)N(c4ccc(C#N)c(C(F)(F)F)c4)C(=O)C3(C)C)cn2)CC1 [Compound 4, 4-(4,4-Dimethyl-3-(6-((1-methylpiperidin-4-yl)oxy)pyridin-3-yl)-5-oxo-2-thioxoimidazolidin-1-yl)-2-(trifluoromethyl)benzonitrile hydrochloride] | 83.2 | 102 | > 15100 | 0.1 |  |
| CC1(C)C(=O)N(c2ccc(C#N)c(C(F)(F)F)c2)C(=S)N1c1cnc(OC2CCNCC2)nc1 [Compound 5, 4-(4,4-Dimethyl-5-oxo-3-(2-(piperidin-4-yloxy)pyrimidin-5-yl)-2-thioxoimidazolidin-1-yl)-2-(trifluoromethyl)benzonitrile] | 229 | 101 | > 15100 | 0 |  |
| CN1CCC(Oc2ncc(N3C(=S)N(c4ccc(C#N)c(C(F)(F)F)c4)C(=O)C3(C)C)cn2)CC1 [Compound 6, 4-(4,4-Dimethyl-3-(2-((1-methylpiperidin-4-yl)oxy)pyrimidin-5-yl)-5-oxo-2-thioxoimidazolidin-1-yl)-2-(trifluoromethyl)benzonitrile] |  | 101 | > 15100 | -0.1 | 135 |
| CC1(C)C(=O)N(c2ccc(C#N)c(Cl)c2)C(=S)N1c1ccc(OC2CCNCC2)cc1 [Compound 7, 2-Chloro-4-(4,4-dimethyl-5-oxo-3-(4-(piperidin-4-yloxy)phenyl)-2-thioxoimidazolidin-1-yl)benzonitrile hydrochloride] | 38 | 101 | > 15100 | -0.1 |  |
| CN1CCC(Oc2ccc(N3C(=S)N(c4ccc(C#N)c(Cl)c4)C(=O)C3(C)C)cc2)CC1 [Compound 8, 2-Chloro-4-(4,4-dimethyl-3-(4-((1-methylpiperidin-4-yl)oxy)phenyl)-5-oxo-2-thioxoimidazolidin-1-yl)benzonitrile hydrochloride] | 58.9 | 101 | > 15100 | 0.1 |  |
| CC1(C)C(=O)N(c2ccc(C#N)c(Cl)c2)C(=S)N1c1ccc(OC2CCNCC2)nc1 [Compound 9, 2-Chloro-4-(4,4-dimethyl-5-oxo-3-(6-(piperidin-4-yloxy)pyridin-3-yl)-2-thioxoimidazolidin-1-yl)benzonitrile hydrochloride] | 38.9 | 100 | > 15100 | 0 |  |
| CN1CCC(Oc2ccc(N3C(=S)N(c4ccc(C#N)c(Cl)c4)C(=O)C3(C)C)cn2)CC1 [Compound 10, 2-Chloro-4-(4,4-dimethyl-3-(6-((1-methylpiperidin-4-yl)oxy)pyridin-3-yl)-5-oxo-2-thioxoimidazolidin-1-yl)benzonitrile hydrochloride] | 85.1 | 101 | > 15100 | 0.1 |  |
| N#Cc1ccc(N2C(=O)C3(CCC3)N(c3ccc(OC4CCNCC4)cc3)C2=S)cc1C(F)(F)F [Compound 11, 4-(8-Oxo-5-(4-(piperidin-4-yloxy)phenyl)-6-thioxo-5,7-diazaspiro[3.4]octan-7-yl)-2-(trifluoromethyl)benzonitrile] | 107 | 102 | > 15100 | 0.1 |  |
| CN1CCC(Oc2ccc(N3C(=S)N(c4ccc(C#N)c(C(F)(F)F)c4)C(=O)C34CCC4)cc2)CC1 [Compound 12, 4-(5-(4-((1-Methylpiperidin-4-yl)oxy)phenyl)-8-oxo-6-thioxo-5,7-diazaspiro[3.4]octan-7-yl)-2-(trifluoromethyl)benzonitrile] | 166 | 101 | > 15100 | 0.2 |  |
| N#Cc1ccc(N2C(=O)C3(CCC3)N(c3ccc(OC4CCNCC4)nc3)C2=S)cc1C(F)(F)F [Compound 13, 4-(8-Oxo-5-(6-(piperidin-4-yloxy)pyridin-3-yl)-6-thioxo-5,7-diazaspiro[3.4]octan-7-yl)-2-(trifluoromethyl)benzonitrile hydrochloride] | 57.5 | 102 | > 15100 | 0 |  |
| CN1CCC(Oc2ccc(N3C(=S)N(c4ccc(C#N)c(C(F)(F)F)c4)C(=O)C34CCC4)cn2)CC1 [Compound 14, 4-(5-(6-((1-Methylpiperidin-4-yl)oxy)pyridin-3-yl)-8-oxo-6-thioxo-5,7-diazaspiro[3.4]octan-7-yl)-2-(trifluoromethyl)benzonitrile] | 57.5 | 101 | > 15100 | 0.1 |  |
